One test has as its target T1, mKCNK9 (Mus musculus, UniProt Q3LS21).
T1 construct: expressed in transfected cells; host or cells: Xenopus laevis oocytes injected with cRNA (subcloned into pSGEM; clone from Dr. D. Bayliss)
The experiment in a line: Two-electrode voltage clamp on Xenopus oocytes expressing mKCNK9. The class given is cell-based. As to conditions: 1–1000 μM. From the text:
(§1) Human KCNK3 (TASK-1, K2P3.1) cloned into the expression vector pIRES-CD8 was a gift from Dr. Fabrice Duprat (Institut National de la Santé et de la Recherche Médicale, Antipolis, France). Human KCNK18 (hTRESK, K2P18.1), cloned into the plasmid pEXO, was a gift from Dr. P. Enyedi (Semmelweis University, Budapest, Hungary). These plasmids were linearized with the restriction enzymes BamHI and XbaI, respectively, and then used as templates for in vitro transcription. Human KCNK9 (hTASK-3, K2P9.1) cloned into the expression vector pCR4-TOPO, was purchased from Imagenes (Berlin, Germany). The plasmid was linearized with the restriction enzyme SspI, to generate a linear cDNA template for in vitro transcription. mKCNK3 was isolated from mouse heart by standard procedures and inserted into pSGEM. mKCNK9 and mKCNK18 were kindly provided by Dr. D. Bayliss (University of Virginia, Charlottesville, VA, United States) and Prof. Dr. P. Enyedi (Semmelweis University, Budapest, Hungary). Both channels were subcloned into pSGEM. The pSGEM plasmids were subsequently linearized with the restriction enzyme PacI. The capped RNAs were synthesized in the presence of the capping analog m7G(5′)ppp(5′)G using the AmpliCap-T7 Message Maker kit (Epicentre, Madison, WI, United States). The cRNA was dissolved in nuclease-free water to obtain a final concentration of 100 ng/μL. […]

The next test relates to T2, mKCNK18.
T2 construct: expressed in transfected cells; host or cells: Xenopus laevis oocytes injected with cRNA (subcloned into pSGEM; clone from Prof; Dr. P. Enyedi)
In words: Two-electrode voltage clamp on Xenopus oocytes expressing mKCNK18. Format: cell-based, mouse. Conditions: 1–1000 μM.
Source text: as §1

T1 sequence (Q3LS21 whole entry): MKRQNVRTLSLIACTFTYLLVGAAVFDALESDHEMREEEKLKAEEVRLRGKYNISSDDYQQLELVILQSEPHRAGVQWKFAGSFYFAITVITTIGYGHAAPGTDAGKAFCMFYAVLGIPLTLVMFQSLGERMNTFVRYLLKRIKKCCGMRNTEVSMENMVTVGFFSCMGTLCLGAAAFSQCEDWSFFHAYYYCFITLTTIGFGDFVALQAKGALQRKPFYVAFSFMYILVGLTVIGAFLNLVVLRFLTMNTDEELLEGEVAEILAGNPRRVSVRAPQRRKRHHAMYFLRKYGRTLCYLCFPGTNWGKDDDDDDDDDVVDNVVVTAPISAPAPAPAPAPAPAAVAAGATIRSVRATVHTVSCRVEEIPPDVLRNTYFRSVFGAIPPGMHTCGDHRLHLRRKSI

As a reminder, the IC50 is the concentration that gives 50% inhibition. A lower IC50 goes with higher potency. `O=C(/C=C/C=C/c1ccc2c(c1)OCO2)N1CCCCC1` [1a, piperine] yielded an IC50 against mKCNK9 of 214 ± 60.1 µM. Further, the “effect on mKCNK18” value with mKCNK18 is “much less affected”.
